# In patent US6368831B1, “Treatment of hyperproliferative disorders” (Childrens Hospital Los Angeles, priority 1998, dated 2002):
# Columns and labels:
# [1] = tested on: CHLA-90 neuroblastoma cells; assay: DIMSCAN cytotoxicity assay, CHLA-90; assay type: cell-based; settings: for Combination Index (C.I.) at LD99: PPMP isomer plus HPR at 1:1 micromolar ratio, +96-120 hours; for cell survival on addition of safingol to the retinoid: retinoid plus safingol 3:1 molar ratio vs retinoid alone
# Description: (§1) Cytotoxicity is determined using the DIMSCAN assay system (R. Proffitt et al., Cytometry 24, 204-213 (1996); T. Frgala et al., Proc. AACR, 36, 303 (1995). The system employs digital imaging microscopy to quantify viable cells, which selectively accumulate fluorescein diacetate to become brightly fluorescent. The system is capable of measuring cytotoxicity over a 4-5 log dynamic range by quenching the residual fluorescence of dead and dying cells with eosin Y and quantifying the total fluorescence of viable cells using digital thresholding. Measured fluorescence is directly proportionate to the number of viable cells. A comparison of the total fluorescence of a drug-treated cell population to the fluorescence of a similar number of untreated cells yields a survival fraction. In brief, 5000 to 10,000 SK-N-RA neuroblastoma cells/well are replicate plated into 60 wells of a 96-well tissue culture plate in 0.1 cc media and allowed to attach overnight. Drug(s) are then added in 0.05 cc media to the final concentrations indicated. There are 12 wells treated per drug concentration. Twelve wells receive drug-vector only to the appropriate final concentration and serve as controls for the plate. Cells are incubated for 96-120 hours at 37° C. in 5% CO2. Fluorescein diacetate is then added to each well in 0.05 cc media to a final concentration of 8 microgram/cc. Cells are incubated for a further 15 minutes at 37° C. and 0.03 cc of 0.5% eosin Y is added to each well. Total fluorescence of viable cells is then measured by digital imaging microscopy.
# (§2) Methods. Cells were added in 100 μL whole medium per well to 96-well microplates for DIMSCAN cytotoxicity assay as previously described. Cell lines used were the neuroblastoma cell lines CHLA-90 and LAN-6. At Time=0, either all-trans-retinoic acid (ATRA), 13-cis-retinoic acid (13-cis-RA) or a combination of retinoid plus safingol at a 3:1 molar ratio were added in 50 μL whole medium. Plates were incubated and assayed for cytotoxicity by DIMSCAN assay at +120 for CHLA-90 cells and+144 hours for LAN-6 cells.
# Methods. To determine the manner in which 4-HPR or HPR+safingol induced cell death in neuroblastoma cells, morphological evidence of apoptosis and/or necrosis was assessed in CHLA-90 cells in the presence or absence of a specific as inhibitor of apoptosis, the neural cell-penetrant, pan-caspase enzyme inhibitor, BOC-d-fink (Enzyme Systems Products, Livermore, Calif.). […] CHLA-90 cells were plated in duplicate in whole medium in Lab Tek chamber slides (Nunc, Naperville, Ill.), allowed to attach for 24 hours, and then treated in the presence or absence of BOC-d-fink (40 μM) for one hour prior to treatment with HPR (10 μM). Control cells were treated with vehicle solvents of 0. 1% ethanol (4-HPR) and/or 0.2% DMSO (BOC-d-fink). Morphological features of apoptosis (DNA condensation and/or apoptotic bodies) were visualized in undetached cells at +24 or +48 hours using blue nuclear fluorescence induced by the supravital DNA stain Hoechst 33342 (10 μg/ml for 30 mins at 37° C.), while necrotic cells and advanced apoptotic cells were recognized by red fluorescent staining with propidium iodide (0.5 μM/ml). Red fluorescently-staining cells with condensed nuclear remnants were scored as apoptotic cells. For cells assayed at +48 hours, additional BOC-d-fink (40 μM) or appropriate control vehicle was added at +24 hours. Cells were observed using filters appropriate for each dye sequentially on an Olympus Vanox epifluorescence microscope. Mutiple random fields of cells (of ˜100-500 cells each) were counted and photographed for viable cells, apoptotic cells, and necrotic cells. To further examine cells treated with HPR, cytotoxicity assays were performed on CHLA-90 cells pretreated with or without 40 μM BOC-d-fmk for one hour prior to the addition of 4-HPR (3-10 μM) and assayed at +24 hours by DIMSCAN assay to assess the effect of caspase inhibition on viability. […]
# [2] = tested on: SK-N-RA neuroblastoma cells; assay: DIMSCAN cytotoxicity assay, SK-N-RA; assay type: cell-based; settings: for Combination Index (C.I.) at LD99: PPMP isomer plus HPR at 1:1 micromolar ratio, +96-120 hours
# Description: as §1
# As reported above, we have succeeded in increasing the cytotoxicity of 4-HPR through inhibition of several ceramide-related pathways. Most of the inhibitors used have been only studied in vitro. […]
# Methods. […] Cytotoxocity is expressed as the fraction of cells surviving (Survival Fraction, S.F.). […] Cytotoxic synergy was analyzed by Combination Index (C.I.) analysis calculated at the dose lethal to 99% of exposed cells (LD99). Statistical analysis of the differences in mean cytotoxicity was evaluated by the unpaired, two-sided Student's t test.
# [3] = tested on: Neuro2a neuroblastoma cells; settings: cited from earlier work
# [4] = tested on: LAN-6 neuroblastoma cells; assay: DIMSCAN cytotoxicity assay, LAN-6; assay type: cell-based, human; settings: +144 hours; for cell survival on addition of safingol to the retinoid: retinoid plus safingol 3:1 molar ratio vs retinoid alone
# Description: as §1, with “A comparison of the total fluorescence of a drug-treated cell population to the fluorescence of a similar number of untreated cells yields a survival fraction.” left out
# as §2
# [5] = Phase I; one hour infusion at 120 mg/m^2; cited from earlier work
# MCF7/GCS cells = assay: DIMSCAN cytotoxicity assay, MCF7/GCS tet OFF vs tet ON; assay type: cell-based, human; settings: 96 hours, P<0.005 at >6 μM HPR, safingol 0-4 μM
# Text: We have shown that HPR generates ceramide in neuroblastoma tumor cell lines in a dose- and time-depenent manner (B. Maurer et al., J. Natl. Cancer Inst. (1999)(in press)). Glucosylceramide (GC) is a nontoxic metabolite of ceramide. Ceramide is converted into glucosylceramide by the action of glucosylceramide synthase (GCS). Glucosylceramide synthase (GCS) has been transfected into human MCF7 breast cancer cells in a tetracycline-inducible expression construct in the MCF7/GCS cell line (Y. Liu et al., J. Biol. Chem. 274:1140-46 (1999)). […] We have exposed MCF7/GCS cells to HPR, safingol and HPR+safingol in the absence, and in the presence, of doxycycline.
# Methods. MCF7/GCS cells were plated and incubated in RPMI medium with 10% fetal bovine serum and 200 microgram/ml Hygromycin B (tet OFF) for DIMSCAN cytotoxicity assays as previously described. To increase GCS expression, MCF7/GCS cells were also incubated in the above medium with 3 microgram/ml doxycycline (tet ON) for three days prior to replating them for DIMSCAN cytotoxicity assay. DIMSCAN assays with doxycycline-induced (tet ON) cells also included 3 microgram/ml doxycycline in the medium. Both “tet OFF” and “tet ON” MCF7/GCS cells were exposed to HPR, safingol and HPR+safingol (3:1 molar ratio) for 96 hours and assayed for survival fraction by DIMSCAN as previously described.
# CHLA-90 cells = assay: Flow cytometry sub G0/G1 DNA content, CHLA-90; assay type: cell-based, human; settings: BOC-d-fmk 40 μM, HPR 10 μM, +24 hours
smiles,measurement,setting,value
"CCCCCCCCCCCCCCCC(=O)NC(CN1CCOCC1)C(O)c1ccccc1 [D,L-erythro-PPMP, 1-phenyl-2-palmitoylamino-3-morpholino-1-propanol]",Combination Index (C.I.) at LD99,[1],0.18
same,Combination Index (C.I.) at LD99,[2],< 0.06
"CCCCCCCCCCCCC/C=C/[C@@H](O)[C@H](CO)N(C)C [N-DMS, d-erythro-N,N-dimethylsphingosine]",cytotoxicity when added to fenretinide and PPMP,"[2]; 5 μM fenretinide fixed plus 5 μM PPMP fixed plus N-DMS, 20% O2",increased cytotoxicity
"CC1=C(/C=C/C(C)=C/C=C/C(C)=C/C(=O)O)C(C)(C)CCC1 [ATRA, all-trans-retinoic acid]",increase in the level of ceramide,[3],1.5 ×
same,cell survival on addition of safingol to the retinoid,[4],significant decrease in the cell survival
same,cell survival on addition of safingol to the retinoid,[1]; +120 hours,significant decrease in the cell survival
"CCCCCCCCCCCCCCCC(=O)NC(CN1CCOCC1)C(O)c1ccccc1 [D,L-threo-PPMP, 1-phenyl-2-palmitoylamino-3-morpholino-1-propanol]",Combination Index (C.I.) at LD99,[1],< 0.09
same,Combination Index (C.I.) at LD99,[2],< 0.01
"CCCCCCCCCCCCCCC[C@H](O)[C@@H](N)CO [Safingol, (2S,3S)-2-amino-1,3-octadecanediol]",reported toxicities,[5],no reported toxicities
same,serum levels during infusion,[5],3000 nM
same,"change of cytotoxicity in tet ON (doxycycline, GCS induced) compared to tet OFF cells",MCF7/GCS cells,no significant decrease
same,Survival Fraction,[4]; safingol alone at 4 μM,0.39
same,Survival Fraction,"[1]; safingol alone at 4 μM, +120 hours",0.11
COC(=O)CC(NC(=O)OC(C)(C)C)C(=O)CF (stereo not drawn) [BOC-d-fmk],sub G0/G1 DNA-fragmentation induced by HPR,CHLA-90 cells,abrogated
"CC1=C(/C=C/C(C)=C/C=C/C(C)=C\C(=O)O)C(C)(C)CCC1 [13-cis-RA, 13-cis-retinoic acid]",cell survival on addition of safingol to the retinoid,[4],significant decrease in the cell survival
same,cell survival on addition of safingol to the retinoid,[1]; +120 hours,significant decrease in the cell survival
